Experimental data from US4532202A, “Coupler for photography” (Konishiroku Photo Industry Co., Ltd., priority 1982, dated 1985).

Tests used:
[1] = Solubility test of couplers in di-n-butyl phthalate / ethyl acetate, visual evaluation of crystal precipitation; type: physicochemical; set-up: key: A: no precipitation; B: slight precipitation; C: precipitation in large amount; details: 1 g coupler in 1 ml di-n-butyl phthalate and 4 ml ethyl acetate, dissolved at 70° C., left to stand at 20° C.
Method: Solubility tests were conducted by use of the couplers for photography of this invention and Control couplers as indicated in Table 2 below. Each one gram of respective couplers was added to a mixture of 1 ml of di-n-butyl phthalate and 4 ml of ethyl acetate and the resulting mixture was heated at 70° C. for complete dissolution, followed by sealing with a stopper. Each sample was left to stand at 20° C. and precipitation of crystals was evaluated by visual observation. In Table 2, in the evaluation column, A represents no precipitation, B slight precipitation and C precipitation in large amount.

[2] = Photographic characteristics (sensitivity, maximum density, maximum absorption) of silver halide color photographic material containing coupler; details: cyan dye formed
Method: The resultant solution was mixed with 5 ml of an aqueous 10% solution of Alkanol B (aklylnaphthalene sulfonate, produced by Du Pont de Nemours & Co.) and 200 ml of an aqueous 5% gelatin solution and emulsified by means of a colloid mill to prepare respective coupler dispersions. Then, each of these coupler dispersions was added to 500 g of a gelatin-silver chlorobromide emulsion, and the mixture was applied on polyethylene coated paper, followed by drying, to prepare six kinds of light-sensitive silver halide color photographic materials. These samples were subjected to wedge exposure following the conventional procedure and then processed as follows.
Processing step (30° C.)
Color developing 3 min. 30 sec.
Bleach-fixing 1 min. 30 sec.
Washing with water 2 min.
In the following, compositions of respective processing solutions are shown.
[Composition of color developing solution]
4-Amino-3-methyl-N--ethyl-N--
(β-methanesulfonamidoethyl)-aniline sulfate
Sodium hexamethaphosphate 2.5 g
Anhydrous sodium sulfite 1.85 g
Made up to one liter with addition of water, and adjusted to pH 10.30 with sodium hydroxide.
[Composition of bleach-fixing solution]
Iron ammonium salt of ethylenediaminetetraacetic
Diammonium salt of ethylenediaminetetraacetic
Ammonium thiosulfate 124.5 g
Sodium metabisulfite 13.3 g
Anhydrous sodium sulfite 2.7 g
Made up to one liter with addition of water.
For samples obtained by the above processing, photographic characteristics were measured respectively. Measurements were conducted by use of PDA-60 Model sensitometer (produced by Konishiroku Photo Industry Co.) The results are shown in Table 3 below.
The sensitivity values are shown as relative sensitivities to the value of the sample having the highest sensitivity as 100.

Evaluation of solubility After 6 hours [1] | Evaluation of solubility After 12 hours [1] | Evaluation of solubility After one hour [1] | Maximum absorption [2] [nm] | SMILES
C | C | B |  | CCC(Oc1ccc(C(C)(C)CC)cc1C(C)(C)CC)C(=O)Nc1cc(O)c(NC(=O)c2c(F)c(F)c(F)c(F)c2F)cc1Cl (stereo not drawn) [Control coupler (B)]
C | C | B |  | CCCCCCCCC(Oc1ccc(C(C)(C)CC)cc1C(C)(C)CC)C(=O)Nc1cc(O)c(NC(=O)c2c(F)c(F)c(F)c(F)c2F)cc1Cl (stereo not drawn) [Control coupler (C)]
B | C | B |  | CCCCCCCCCCCCC(Oc1ccc(C(C)(C)CC)cc1C(C)(C)CC)C(=O)Nc1cc(O)c(NC(=O)c2c(F)c(F)c(F)c(F)c2F)cc1Cl (stereo not drawn) [Control coupler (D)]
A | A | A | 655 | CCC(C)(C)c1ccc(OC(C(=O)Nc2cc(O)c(NC(=O)c3c(F)c(F)c(F)c(F)c3F)cc2Cl)C(C)C)c(C(C)(C)CC)c1 (stereo not drawn) [Exemplary compound (I-2), 2-(2,3,4,5,6-pentafluoro)benazmido-4-chloro-5-[α-(2,4-di-t-amylphenoxy)-β-methylbutaneamido]phenol]
A | A | A |  | CCC(C)C(Oc1ccc(C(C)(C)CC)cc1C(C)(C)CC)C(=O)Nc1cc(O)c(NC(=O)c2c(F)c(F)c(F)c(F)c2F)cc1Cl (stereo not drawn) [Exemplary compound (I-4)]

More lines, now with the values behind:

SMILES | Evaluation of solubility After 6 hours [1] | Evaluation of solubility After 12 hours [1] | Evaluation of solubility After one hour [1] | Maximum absorption [2] [nm]
CCC(Oc1ccc(C(C)(C)CC)cc1C(C)(C)CC)C(=O)Nc1cc(Cl)c(C)c(Cl)c1O (stereo not drawn) [Control coupler (E)] |  |  |  | 654
CCCCCCCCCCCCC(Oc1ccc(NS(=O)(=O)CCCC)cc1)C(=O)Nc1cc(O)c(NC(=O)c2ccccc2)cc1Cl (stereo not drawn) [Control coupler (F)] |  |  |  | 641
CCCCCCCCCCCCC(Oc1ccc(O)c(C(C)(C)C)c1)C(=O)Nc1ccc(NC(=O)c2ccccc2F)c(O)c1 (stereo not drawn) [Control coupler (G)] |  |  |  | 640
CC(C)C(Oc1ccc(C(C)(C)C)cc1C(C)(C)C)C(=O)Nc1cc(O)c(NC(=O)c2c(F)c(F)c(F)c(F)c2F)cc1Cl (stereo not drawn) [Exemplary compound (I-3)] | A | A | A | 
CCCCCCCCCCCCCCCc1cccc(OC(C(=O)Nc2cc(O)c(NC(=O)c3c(F)c(F)c(F)c(F)c3F)cc2Cl)C(C)C)c1 (stereo not drawn) [Exemplary compound (I-10), 2-(2,3,4,5,6-pentafluoro)benzamido-4-chloro-5-[α-(m-pentadecylphenoxy)-β-methylbutaneamido]phenol] |  |  |  | 654
CCCCS(=O)(=O)Nc1ccc(OC(C(=O)Nc2cc(O)c(NC(=O)c3c(F)c(F)c(F)c(F)c3F)cc2Cl)C(C)C)cc1 (stereo not drawn) [Exemplary compound (I-11)] |  |  |  | 657
